According to US20200352905A1, “6-(2,4-DICHLOROPHENYL)-5-[4-[(3S)-1-(3-FLUOROPROPYL)PYRROLIDIN-3-YL]OXYPHENYL]-8,9-DIHYDRO-7H-BENZO[7]ANNULENE-2-CARBOXYLIC ACID FOR USE IN METASTATIC OR ADVANCED BREAST CANCER PATIENTS” (SANOFI, priority 2019, published 2020):
“Also recorded” adds a separate entry of the source.

What was measured:
[1] = TED14856 Part B (dose expansion, 400 mg QD): safety, TEAEs; assay type: in vivo, human
Experimental: Part B: Dose expansion study to evaluate the efficacy, safety, PK and PD of compound (1) administered at the RD (from Part A). […] A BID regimen (without omission on Day 2) may also be explored if found to be needed. Safety population includes all patients exposed to at least one dose of the study treatment. Treatment emergent adverse events (TEAEs) are analyzed according to current version of the Medical Dictionary for Regulatory Activities (MedDRA) dictionary. Laboratory abnormalities are analyzed according to the NCI-CTCAE v.4.03. Type, frequency, seriousness, severity and relatedness of study treatment TEAEs is analyzed on the safety population for each dose level. Similar analyses as for the escalation phase shall be performed.

[2] = Pilot food effect on PK (moderate fat breakfast, Day 3 Cycle 1, Part A); assay type: in vivo, human
Experimental: Pilot food effect: A pilot food effect is assessed by PK sampling after drug administration with a moderate fat breakfast on Day 3 of Cycle 1 in all patients treated in Part A. All other dosing in Part A is taken in fasted condition. If results from the QD dosing regimen allow conclusions to be drawn, this will not be implemented for other dosing regimens (eg, BID) that are explored.
For the QD regimen, during Cycle 1, one dose is taken on Day 1 in fasting condition, no dose on Day 2 and repeated administration starts from Day 3. On Day 3 only, the dose is taken in fed condition for a food effect evaluation, and then all subsequent administrations are taken in fasted condition, and at approximately the same time each day (±3 hours). From the conclusions drawn with the initial QD dose regimen, patients treated with other dose regimens are allowed to take Compound (1) in fasted or fed condition. For the BID regimen, the 600 mg dose is split in two drug administrations: 300 mg taken two times a day 12 hours apart (i.e. 2×300 mg)±1 hour with or without food (with one dose only taken in the morning on Day 1, no dose on Day 2 and then repeated BID dosing from Day 3).
The food effect is assessed by comparing AUC0-24 and Cmax between Day 1/Cycle 1 and Day 3/Cycle 1 in Part A.

[3] = test system: ER-positive and HER2-negative advanced breast cancer; assay: TED14856 pooled population (Part A >=150 mg and Part B): post-hoc efficacy analyses and sub-populations; conditions: for Best Overall Response: Complete Response (CR), number of patients / Best Overall Response: Partial Response (PR), % of patients / Best Overall Response: Partial Response (PR), number of patients / Best Overall Response: Progressive Disease (PD), % of patients / Best Overall Response: Progressive Disease (PD), number of patients / Best Overall Response: Stable Disease (SD), % of patients / Best Overall Response: Stable Disease (SD), number of patients / Clinical Benefit Rate, % of patients / Clinical Benefit Rate, number of patients / Overall Response Rate (confirmed CR and PR), % of patients / Overall Response Rate (confirmed CR and PR), number of patients: no prior mTOR, CDK4/6, fulvestrant; for Clinical Benefit Rate (CBR): pooled population
[4] = All, pooled Part A ≥150 mg and Part B 400 mg (N = 14)
[5] = TED14856 2017-2019, pooled population n=59, setting 2-9L, prior CDK4/6, mTOR, fulvestrant allowed
[6] = TED14856 2017-2019, sub-population n=14, setting 2L+, no prior CDK4/6, mTOR, fulvestrant
[7] = TED14856 2017-2019, sub-population n=32, setting 3L, prior CDK4/6 allowed, prior mTOR not allowed, prior fulvestrant allowed
[8] = sub-population of 14 patients with neither prior targeted therapies nor SERD (3/14)

O=C(O)c1ccc2c(c1)CCCC(c1ccc(Cl)cc1Cl)=C2c1ccc(O[C@H]2CCN(CCCF)C2)cc1 [compound (1), 6-(2,4-dichlorophenyl)-5-[4-[(3S)-1-(3-fluoropropyl)pyrrolidin-3-yl]oxyphenyl]-8,9-dihydro-7H-benzo[7]annulene-2-carboxylic acid]
Patients with related TEAE: Back pain ([1]; Part B, 400 mg, N=49): 0 n
Patients with related TEAE: Headache ([1]; Part B, 400 mg, N=49): 0 n
Patients with related TEAE: Nasopharyngitis ([1]; Part B, 400 mg, N=49): 0 n
Patients with related TEAE: Pyrexia ([1]; Part B, 400 mg, N=49): 0 n
Patients with related TEAE: Rhinitis allergic ([1]; Part B, 400 mg, N=49): 0 n
number of SAEs of grade ≥3 ([1]; Part B, N=49): 14
laboratory abnormality reported as adverse event: alkaline phosphatase increase ([1]; Part B, not considered related): 1
laboratory abnormality reported as adverse event: hyperbilirubinemia ([1]; Part B, not considered related): 2
laboratory abnormality reported as adverse event: hypercalcemia ([1]; Part B, not considered related): 1
laboratory abnormality reported as adverse event: increase of alanine amino transferase ([1]; Part B, not considered related): 3
laboratory abnormality reported as adverse event: increase of aspartate amino transferase ([1]; Part B, not considered related): 3
related serious adverse events ([1]; whole study): no related serious adverse events
Tmax ([2]; female, human, plasma, oral, overall across doses, read-out: delay of median tmax with food): ~1 h
increase of exposure with food ([2]; overall across doses): about 45%
food effect on exposure ([2]; regardless of dose level): did not result in a major effect on exposure; also recorded: minimal
Best Overall Response: Complete Response (CR), number of patients ([3]; 400 mg PART B (N = 11)): 0 n
Best Overall Response: Partial Response (PR), % of patients ([3]; 400 mg PART B (N = 11)): (27.3) %
Best Overall Response: Partial Response (PR), number of patients ([3]; 400 mg PART B (N = 11)): 3 n
Best Overall Response: Progressive Disease (PD), % of patients ([3]; 400 mg PART B (N = 11)): (18.2) %
Best Overall Response: Progressive Disease (PD), number of patients ([3]; 400 mg PART B (N = 11)): 2 n
Best Overall Response: Stable Disease (SD), % of patients ([3]; 400 mg PART B (N = 11)): (54.5) %
Best Overall Response: Stable Disease (SD), number of patients ([3]; 400 mg PART B (N = 11)): 6 n
Clinical Benefit Rate, % of patients ([3]; 400 mg PART B (N = 11)): (63.6) %
Clinical Benefit Rate, number of patients ([3]; 400 mg PART B (N = 11)): 7 n
Overall Response Rate (confirmed CR and PR), % of patients ([3]; 400 mg PART B (N = 11)): (27.3) %
Overall Response Rate (confirmed CR and PR), number of patients ([3]; 400 mg PART B (N = 11)): 3 n
Best Overall Response: Complete Response (CR), number of patients [3, 4]: 0 n
Best Overall Response: Partial Response (PR), % of patients [3, 4]: (21.4) %
Best Overall Response: Partial Response (PR), number of patients [3, 4]: 3 n
Best Overall Response: Progressive Disease (PD), % of patients [3, 4]: (21.4) %
Best Overall Response: Progressive Disease (PD), number of patients [3, 4]: 3 n
Best Overall Response: Stable Disease (SD), % of patients [3, 4]: (57.1) %
Best Overall Response: Stable Disease (SD), number of patients [3, 4]: 8 n
Clinical Benefit Rate, % of patients [3, 4]: (64.3) %
Clinical Benefit Rate, number of patients [3, 4]: 9 n
Overall Response Rate (confirmed CR and PR), % of patients [3, 4]: (21.4) %
Overall Response Rate (confirmed CR and PR), number of patients [3, 4]: 3 n
CBR [3, 5]: 35.6%
ORR [3, 5]: 6.8%
CBR [3, 6]: 64.3%
ORR [3, 6]: 21.4%
CBR [3, 7]: 46.9%
ORR [3, 7]: 12.5%
Clinical Benefit Rate (CBR) ([3]; ESR1 mutated patients (9/28)): 32.1%
Clinical Benefit Rate (CBR) ([3]; patients with wild-type ESR1 (12/30)): 40.0%
Complete Response (CR) ([3]; pooled: All, N=59, by investigator): 0 n
Complete Response (CR) ([3]; pooled: Part A >=150 mg, N=13, by investigator): 0 n
Complete Response (CR) ([3]; pooled: Part B 400 mg, N=46, by investigator): 0 n
ORR [3, 8]: 21.4%
PD [3, 8]: 21.4%
PRs [3, 8]: 21.4%
CBR ([3]; sub-population of 14 patients with neither prior targeted therapies nor SERD (9/14)): 64.3%
Complete Response (CR) ([3]; ≤3 prior lines, not both chemotherapy and CDK4/6 inhibitor, no mTOR inhibitor: All, N=32): 0 n
Complete Response (CR) ([3]; ≤3 prior lines, not both chemotherapy and CDK4/6 inhibitor, no mTOR inhibitor: Part A ≥150 mg, N=6): 0 n
Complete Response (CR) ([3]; ≤3 prior lines, not both chemotherapy and CDK4/6 inhibitor, no mTOR inhibitor: Part B 400 mg, N=26): 0 n
Best Overall Response: Complete Response (CR), number of patients ([3]; ≥150 mg PART A (N = 3)): 0 n
Best Overall Response: Partial Response (PR), number of patients ([3]; ≥150 mg PART A (N = 3)): 0 n
Best Overall Response: Progressive Disease (PD), % of patients ([3]; ≥150 mg PART A (N = 3)): 33.3%
Best Overall Response: Progressive Disease (PD), number of patients ([3]; ≥150 mg PART A (N = 3)): 1 n
Best Overall Response: Stable Disease (SD), % of patients ([3]; ≥150 mg PART A (N = 3)): 66.7%
Best Overall Response: Stable Disease (SD), number of patients ([3]; ≥150 mg PART A (N = 3)): 2 n
Clinical Benefit Rate, % of patients ([3]; ≥150 mg PART A (N = 3)): 66.7%
Clinical Benefit Rate, number of patients ([3]; ≥150 mg PART A (N = 3)): 2 n
Overall Response Rate (confirmed CR and PR), number of patients ([3]; ≥150 mg PART A (N = 3)): 0 n
